Results taken from US20230278972A1, “SUBSTITUTED HALOALKYL SULFONANILIDE HERBICIDES” (FMC Corporation, priority 2020, published 2023).

Tests used:
Assay type in all cases: in vivo
[1] = test system: Pigweed, Palmer (palmer amaranth, palmer pigweed, Amaranthus palmeri); experiment: Test A1 preemergence, Pigweed, Palmer
How it was run: (§1)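 Plants grown in pots of loam/sand mix; preemergence = soil-directed spray on seeded pots, postemergence = spray at 1–2 leaves, height 2–10 cm; test chemicals formulated in non-phytotoxic solvent with surfactant.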

[2] = test system: Ryegrass, Italian (Italian ryegrass, Lolium multiflorum); experiment: Test A1 preemergence, Ryegrass, Italian
How it was run: as §1

[3] = test system: soybean (Glycine max); experiment: Test A1 preemergence, soybean
How it was run: as §1

[4] = test system: blackgrass (Alopecurus myosuroides); experiment: Test A1 postemergence, blackgrass; conditions: Postemergence, 0 to 100 scale (0 no effect, 100 complete control)
How it was run: as §1

[5] = test system: corn (Zea mays); experiment: Test A1 postemergence, corn; conditions: Postemergence
How it was run: as §1

[6] = test system: Foxtail, Giant (giant foxtail, Setaria faberi); experiment: Test A1 postemergence, Foxtail, Giant; conditions: Postemergence
How it was run: as §1

[7] = test system: kochia (Bassia scoparia); experiment: Test A1 postemergence, kochia; conditions: Postemergence
How it was run: as §1

[8] = test system: Ryegrass, Italian (Italian ryegrass, Lolium multiflorum); experiment: Test A1 postemergence, Ryegrass, Italian; conditions: Postemergence
How it was run: as §1

[9] = test system: soybean (Glycine max); experiment: Test A1 postemergence, soybean; conditions: Postemergence
How it was run: as §1

[10] = test system: galium (catchweed bedstraw, Galium aparine); experiment: Test A1 postemergence, galium; conditions: Postemergence
How it was run: as §1

[11] = 31 g ai/ha, 0 to 100 scale (0 no effect, 100 complete control)
[12] = 125 g ai/ha, 0 to 100 scale, 0 no effect, 100 complete control
[13] = 31 g ai/ha, 0 to 100 scale (0 no effect, 100 complete control), 10 days

Row | SMILES | Plant response rating, Pigweed, Palmer [1, 11] | Plant response rating, Pigweed, Palmer [1, 12] | Plant response rating, Ryegrass, Italian [2, 11] | Plant response rating, Ryegrass, Italian [2, 12] | Plant response rating, Soybean [3, 11] | Plant response rating, Soybean [3, 12] | Plant response rating, Blackgrass ([4]; 31 g ai/ha, 10 days) | Plant response rating, Blackgrass ([4]; 125 g ai/ha) | Plant response rating, Corn [5, 13] | Plant response rating, Corn ([5]; 125 g ai/ha, 0 to 100 scale) | Plant response rating, Foxtail, Giant [6, 13] | Plant response rating, Foxtail, Giant ([6]; 125 g ai/ha, 0 to 100 scale) | Plant response rating, Kochia [7, 13] | Plant response rating, Kochia ([7]; 125 g ai/ha, 0 to 100 scale) | Plant response rating, Ryegrass, Italian [8, 13] | Plant response rating, Ryegrass, Italian ([8]; 125 g ai/ha, 0 to 100 scale) | Plant response rating, Soybean [9, 13] | Plant response rating, Soybean ([9]; 125 g ai/ha, 0 to 100 scale) | Plant response rating, Galium [10, 13] | Plant response rating, Galium ([10]; 125 g ai/ha, 0 to 100 scale)
1 | Cc1cc(C)c(N(COC(=O)C(C)(C)C)S(=O)(=O)C(F)(F)F)cc1C(=O)N1CCC(C)CC1 [Compound 353] | 30 | 40 | 0 | 0 | 10 | 30 | 0 | 0 | 0 | 0 | 20 | 50 | 10 | 50 | 0 | 0 | 50 | 60 | 50 | 70
2 | CCOC(=O)N(c1cc(C(=O)N2CCC(C)CC2)c(C)cc1C)S(=O)(=O)C(F)(F)F [Compound 354] | 10 | 50 | 20 | 70 | 30 | 70 | 0 | 0 | 0 | 0 | 0 | 70 | 40 | 50 | 0 | 40 | 50 | 60 | 40 | 80
3 | Cc1cc(C2CC2)c(C2=NOC3CCCC23)cc1N(COC(=O)C(C)(C)C)S(=O)(=O)C(F)(F)F (stereo not drawn) [Compound 355] | 0 | 70 | 20 | 30 | 20 | 30 | 0 | 0 | 0 | 20 | 10 | 60 | 0 | 50 | 30 | 40 | 10 | 40 | 40 | 60
4 | Cc1c(NS(=O)(=O)C(F)(F)F)cc(C(=O)N2CCC(Cl)CC2)c(C)c1C [Compound 356] | 50 | 100 | 0 | 40 | 0 | 80 | 0 | 0 | 0 | 40 | 10 | 40 | 10 | 50 | 20 | 30 | 50 | 80 | 70 | 100
5 | Cc1c(NS(=O)(=O)C(F)(F)F)cc(C(=O)N2CCC(F)(F)CC2)c(C)c1C [Compound 357] | 40 | 100 | 0 | 30 | 0 | 20 | 0 | 0 | 0 | 0 | 0 | 20 | 0 | 30 | 20 | 20 | 40 | 90 | 90 | 100
6 | Cc1c(C(=O)N2CCC(F)(F)CC2)cc(N(COC(=O)C(C)(C)C)S(=O)(=O)C(F)(F)F)c(C)c1C [Compound 360] | 0 | 40 | 0 | 30 | 0 | 0 | 0 | 0 | 0 | 0 | 0 | 0 | 30 | 50 | 0 | 0 | 20 | 40 | 50 | 100
7 | CCOC(=O)N(c1cc(C(=O)N2CCOCC2)c(C)cc1C)S(=O)(=O)C(F)(F)F [Compound 363] | 90 | 100 | 80 | 100 | 10 | 30 | 0 | 50 | 30 | 60 | 30 | 90 | 50 | 70 | 20 | 90 | 60 | 60 | 60 | 90
8 | Cc1cc(C)c(N(COC(=O)C(C)(C)C)S(=O)(=O)C(F)(F)F)cc1C(=O)N1CCC(c2ccccc2)CC1 [Compound 364] | 0 | 0 | 0 | 0 | 0 | 0 | 0 | 0 | 0 | 0 | 0 | 20 | 0 | 30 | 0 | 0 | 0 | 10 | 0 | 30
9 | CCOC(=O)N(c1cc(C(=O)N2CCC(c3ccccc3)CC2)c(C)cc1C)S(=O)(=O)C(F)(F)F [Compound 365] | 30 | 30 | 0 | 30 | 0 | 0 | 0 | 30 | 0 | 0 | 0 | 0 | 10 | 40 | 0 | 10 | 0 | 60 | 40 | 80
